Activity calls are given as the source filed them.
How the values were obtained:
[1] = miR-122Act:qPCR miR-122 Measured in Cell-Based System Using RT-PCR - 2144-04_Activator_Dose_CherryPick_Activity. (absACnn = the concentration at which the curve crosses threshold nn uM); assay type: functional
[2] = miR-122 activators in hepatoma reporter cells, dose response, cell-based, Huh7 psiCHECK-miR122, Renilla luciferase, cherry-picked (AID 651956); assay type: functional;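 also: huh7 hepatoma cells stably carrying a psiCHECK-2 miR-122 sensor plasmid; renilla luciferase signal reporting endogenous miR-122 activity after 48 h compound exposure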
[3] = HEK293 cell viability, dose response, counter-screen for EBV LMP1 inhibitor project, dry powder, set 2 (AID 624374); assay type: functional
Kallikrein-7 = Kallikrein-7 (Homo sapiens, UniProt P49862); experiment: Fluorescence Intensity-based biochemical primary high throughput dose response assay to identify activators of kallikrein-7 (K7) zymogen.
Kallikrein-7, sequence (P49862 whole entry): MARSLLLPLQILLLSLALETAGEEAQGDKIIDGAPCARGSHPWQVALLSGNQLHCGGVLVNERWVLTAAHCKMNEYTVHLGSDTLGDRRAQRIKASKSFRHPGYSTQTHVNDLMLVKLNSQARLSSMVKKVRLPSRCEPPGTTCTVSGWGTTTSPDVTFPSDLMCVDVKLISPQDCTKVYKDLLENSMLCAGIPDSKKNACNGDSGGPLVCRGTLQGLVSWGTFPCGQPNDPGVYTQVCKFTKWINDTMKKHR

[4] = HepG2 cell cytotoxicity, dose response, cytotoxicity control, luminescence plate reader, powder samples, set 2 (AID 651860); assay type: functional, cell-based
[5] = target: Metabotropic glutamate receptor 3 (Rattus norvegicus, UniProt P31422); experiment: mGlu3 NAM potency via calcium readout, dose response, mGlu3 NAM project, TREx293 cells, Galpha15, calcium flux (AID 651840); assay type: functional
Metabotropic glutamate receptor 3, sequence (P31422 whole entry): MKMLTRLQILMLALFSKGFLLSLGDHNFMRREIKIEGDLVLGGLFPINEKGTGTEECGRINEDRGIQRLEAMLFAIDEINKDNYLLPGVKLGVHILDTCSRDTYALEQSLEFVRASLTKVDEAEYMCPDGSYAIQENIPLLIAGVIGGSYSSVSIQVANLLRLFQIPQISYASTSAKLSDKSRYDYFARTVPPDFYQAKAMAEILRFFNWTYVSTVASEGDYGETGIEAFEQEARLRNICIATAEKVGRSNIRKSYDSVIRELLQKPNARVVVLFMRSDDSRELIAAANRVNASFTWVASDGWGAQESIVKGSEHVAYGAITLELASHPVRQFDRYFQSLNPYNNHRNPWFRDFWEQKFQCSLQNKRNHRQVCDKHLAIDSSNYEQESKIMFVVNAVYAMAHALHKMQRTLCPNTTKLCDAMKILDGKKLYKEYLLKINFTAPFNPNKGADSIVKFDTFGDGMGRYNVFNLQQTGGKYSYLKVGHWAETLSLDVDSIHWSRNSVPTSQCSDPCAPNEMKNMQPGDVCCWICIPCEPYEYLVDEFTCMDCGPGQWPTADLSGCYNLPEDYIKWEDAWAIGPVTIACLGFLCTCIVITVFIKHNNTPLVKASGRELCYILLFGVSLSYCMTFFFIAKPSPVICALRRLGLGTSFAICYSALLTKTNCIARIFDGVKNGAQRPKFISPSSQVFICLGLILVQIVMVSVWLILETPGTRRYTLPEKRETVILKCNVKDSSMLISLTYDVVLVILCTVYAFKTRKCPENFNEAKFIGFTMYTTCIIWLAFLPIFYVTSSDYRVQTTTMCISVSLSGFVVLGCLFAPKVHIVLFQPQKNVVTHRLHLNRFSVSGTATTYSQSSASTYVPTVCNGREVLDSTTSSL

[6] = T. cruzi intracellular amastigote growth inhibition, dose response, imaging, CA-I/72 strain, bovine embryo skeletal muscle, dry powder (AID 651885); assay type: functional, cell-based
[7] = T. cruzi growth inhibition in host cells, dose response, cell-based, plate reader, dry powder, set 2 (AID 652275); assay type: functional
[8] = target: Potassium channel subfamily K member 3 (Homo sapiens, UniProt O14649); experiment: TASK1 (KCNK3) potassium channel inhibitors, SAR follow-up, CHO cells, FluxOR thallium flux (AID 652212); assay type: functional
Potassium channel subfamily K member 3, sequence (O14649 whole entry): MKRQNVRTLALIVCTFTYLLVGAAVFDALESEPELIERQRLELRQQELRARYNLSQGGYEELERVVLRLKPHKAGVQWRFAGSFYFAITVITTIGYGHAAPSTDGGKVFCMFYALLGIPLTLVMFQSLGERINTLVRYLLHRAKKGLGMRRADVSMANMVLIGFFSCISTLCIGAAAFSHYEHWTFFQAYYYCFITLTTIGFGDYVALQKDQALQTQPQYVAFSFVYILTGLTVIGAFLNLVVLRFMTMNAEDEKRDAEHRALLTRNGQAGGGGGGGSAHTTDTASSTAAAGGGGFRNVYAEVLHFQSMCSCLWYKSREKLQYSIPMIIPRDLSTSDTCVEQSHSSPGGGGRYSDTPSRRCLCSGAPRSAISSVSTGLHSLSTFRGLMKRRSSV

[9] = target: Potassium channel subfamily K member 9 (Homo sapiens, UniProt Q9NPC2); experiment: TASK3 (KCNK9) channel inhibitors, thallium flux, SAR follow-up, selectivity assay for TASK1 inhibitor project, cell-based, FluxOR thallium flux, concentration-response (AID 652211); assay type: functional;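 also: potency is for inhibitors of the channel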
Potassium channel subfamily K member 9, sequence (Q9NPC2 whole entry): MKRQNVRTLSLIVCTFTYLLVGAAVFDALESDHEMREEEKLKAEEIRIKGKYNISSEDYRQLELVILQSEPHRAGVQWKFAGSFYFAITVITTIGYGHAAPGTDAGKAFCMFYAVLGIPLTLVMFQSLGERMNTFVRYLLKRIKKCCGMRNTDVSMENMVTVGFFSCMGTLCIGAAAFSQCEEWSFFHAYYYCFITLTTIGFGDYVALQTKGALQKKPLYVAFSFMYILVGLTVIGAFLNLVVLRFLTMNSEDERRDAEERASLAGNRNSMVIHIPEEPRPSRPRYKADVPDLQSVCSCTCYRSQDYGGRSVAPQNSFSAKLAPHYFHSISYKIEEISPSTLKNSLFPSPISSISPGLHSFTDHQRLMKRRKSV

[10] = inhibitors of non-replicating M. tuberculosis, dose response, luciferase, dry powder (AID 651620); assay type: functional; settings: Mycobacterium tuberculosis
[11] = inhibitors of non-replicating M. tuberculosis, dose response, luciferase, dry powder (AID 651619); assay type: functional; settings: Mycobacterium tuberculosis
Protein Wnt-3a = Protein Wnt-3a (Mus musculus, UniProt P27467); experiment: SAR analysis of small molecule antagonists of Gli-SUFU in a Wnt3a luminescent reporter assay.; assay type: functional
Protein Wnt-3a, sequence (P27467 whole entry): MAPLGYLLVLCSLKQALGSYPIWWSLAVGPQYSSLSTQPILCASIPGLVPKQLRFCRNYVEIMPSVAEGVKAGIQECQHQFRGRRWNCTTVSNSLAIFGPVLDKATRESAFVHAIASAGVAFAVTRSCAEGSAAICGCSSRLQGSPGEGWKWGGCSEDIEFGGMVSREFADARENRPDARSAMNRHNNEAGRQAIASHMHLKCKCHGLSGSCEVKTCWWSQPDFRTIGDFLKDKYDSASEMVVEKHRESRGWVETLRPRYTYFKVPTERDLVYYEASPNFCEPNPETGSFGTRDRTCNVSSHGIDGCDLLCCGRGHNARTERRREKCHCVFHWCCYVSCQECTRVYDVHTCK

cells = settings: A549
[12] = THP-1 cell cytotoxicity, dose response, cytotoxicity control for Vif-APOBEC3G degradation inhibitor project, THP-1 cells (AID 1117359); assay type: functional; settings: Human immunodeficiency virus 1, THP-1
[13] = inhibitors of PGC1a acetylation in cells, dose response, cell-based, cherry-picked samples (AID 720514); assay type: functional;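 also: potency may reflect raised or lowered acetylation signal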
[14] = target: Induced myeloid leukemia cell differentiation protein Mcl-1 (Homo sapiens, UniProt Q07820); assay type: functional
Induced myeloid leukemia cell differentiation protein Mcl-1, sequence (Q07820 whole entry): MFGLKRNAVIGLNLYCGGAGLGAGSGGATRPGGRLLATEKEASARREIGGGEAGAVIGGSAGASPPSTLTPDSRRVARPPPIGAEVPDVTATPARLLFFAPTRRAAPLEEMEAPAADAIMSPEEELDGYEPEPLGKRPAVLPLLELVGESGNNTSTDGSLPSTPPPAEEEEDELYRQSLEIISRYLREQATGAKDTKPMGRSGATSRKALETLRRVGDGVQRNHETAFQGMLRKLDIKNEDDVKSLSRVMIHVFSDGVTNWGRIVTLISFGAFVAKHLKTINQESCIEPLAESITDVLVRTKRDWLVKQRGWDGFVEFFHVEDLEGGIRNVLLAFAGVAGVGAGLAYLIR

For `Cc1cccc(NC(=O)Nc2ccc3c(c2)C(=O)N(C)[C@@H]2CC[C@H](CC(=O)NCc4ccccc4Cl)O[C@H]2CO3)c1`, the AbsAC40_uM [1] was 8.38 µM and the AC50 [2] was 9.59 µM (active).
`C[C@@H]1CN([C@@H](C)CO)C(=O)Cc2cc(NC(=O)Cc3ccccc3)ccc2O[C@@H]1CN(C)Cc1ccc(C(F)(F)F)cc1` gave an AbsAC35 [3] of 279.95 µM.
For `O=C1NC(C2CC3C=CC2C3)Nc2ccccc21` (configuration not stated), the EC50 (Kallikrein-7) was > 69.4 µM (inactive).
With `O=C(O)[C@@H]1CCCC[C@@H]1C(=O)N1CCc2ccccc2[C@@H]1CN1C(=O)c2ccccc2C1=O` the AC50 [4] was > 52 µM (inactive).
`COc1ccc(C#Cc2ccc(C(=O)NC(C)CO)cc2)cc1` (configuration not stated) gave an IC50 [5] of 4.73 µM.
In the case of `C[C@H]1CN([C@@H](C)CO)C(=O)c2cccc(NC(=O)c3ccncc3)c2O[C@@H]1CN(C)Cc1ccncc1`, the IC50 [6] is reported as > 20 µM (inactive).
With `C[C@H]1CN([C@@H](C)CO)C(=O)c2cccc(NC(=O)c3ccncc3)c2O[C@@H]1CN(C)Cc1cccc(Cl)c1Cl` the AC50 [7] was 0.0255 µM (active).
In the case of `CCOc1ccccc1NC(=O)c1cccc(NC(=O)C2CC2)c1`, the IC50 [8] is reported as 1.07 µM (active) and the IC50 [9] is reported as 10.2 µM (active).
For `c1ccc(CSc2nnc(-c3ccncc3)o2)nc1`, the IC90 [10] was 16 µM (active) and the IC90 [11] was 16 µM (active).
In the case of `CC(C)(C)OC(=O)N1CCN(c2cc(NC(=O)c3ccccc3)ncn2)CC1`, the IC50 (Protein Wnt-3a) is reported as > 21.8 µM (inactive).
For `Cc1cccn2c(=O)c3cc(C(=O)NCc4ccco4)c(=N)n(CCc4ccccc4)c3nc12`, the AC50 (cells) was 39.9 µM (active), the CC50 [12] was 38.1 µM (active) and the AC50 [13] was 28.4 µM (active). For the same compound, the IC50 [14] was 3.57 µM (active).

Source: ChEMBL document CHEMBL1201862, “PubChem BioAssay data set” (2004)
